The values that follow come from patent US20100291605A1, “ASSAYS FOR S-ADENOSYLMETHIONINE-DEPENDENT […]” (WASHINGTON STATE UNIVERSITY RESEARCH FOUNDATION, priority 2006, published 2010).

Where no end group is shown, it is not given here. acyl = not defined here

One experiment addresses adenine deaminase (Bacillus subtilis, UniProt P39761). The class given is biochemical. Particulars: hypoxanthine 3.5 μM to 142 μM, in the presence of 13.3 μM adenine.
The target of another experiment is PRMT1 (Rattus norvegicus, UniProt Q63009). Description: enzyme-coupled continuous spectrophotometric methyltransferase assay (265 nm). The conditions noted are these: for Vmax, R3 compared with JMH1: peptide substrates of PRMT1, in words.
PRMT1, sequence (Q63009 whole entry): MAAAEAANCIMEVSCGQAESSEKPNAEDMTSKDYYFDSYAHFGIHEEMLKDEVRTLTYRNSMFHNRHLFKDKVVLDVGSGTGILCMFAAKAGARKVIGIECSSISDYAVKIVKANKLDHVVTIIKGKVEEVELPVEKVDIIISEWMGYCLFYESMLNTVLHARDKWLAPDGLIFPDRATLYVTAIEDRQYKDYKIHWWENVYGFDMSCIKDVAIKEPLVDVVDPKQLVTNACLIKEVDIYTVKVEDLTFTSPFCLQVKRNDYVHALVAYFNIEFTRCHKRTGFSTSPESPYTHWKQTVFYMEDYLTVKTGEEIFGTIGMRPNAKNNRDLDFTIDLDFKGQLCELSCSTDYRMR

adenine deaminase, sequence (P39761 whole entry): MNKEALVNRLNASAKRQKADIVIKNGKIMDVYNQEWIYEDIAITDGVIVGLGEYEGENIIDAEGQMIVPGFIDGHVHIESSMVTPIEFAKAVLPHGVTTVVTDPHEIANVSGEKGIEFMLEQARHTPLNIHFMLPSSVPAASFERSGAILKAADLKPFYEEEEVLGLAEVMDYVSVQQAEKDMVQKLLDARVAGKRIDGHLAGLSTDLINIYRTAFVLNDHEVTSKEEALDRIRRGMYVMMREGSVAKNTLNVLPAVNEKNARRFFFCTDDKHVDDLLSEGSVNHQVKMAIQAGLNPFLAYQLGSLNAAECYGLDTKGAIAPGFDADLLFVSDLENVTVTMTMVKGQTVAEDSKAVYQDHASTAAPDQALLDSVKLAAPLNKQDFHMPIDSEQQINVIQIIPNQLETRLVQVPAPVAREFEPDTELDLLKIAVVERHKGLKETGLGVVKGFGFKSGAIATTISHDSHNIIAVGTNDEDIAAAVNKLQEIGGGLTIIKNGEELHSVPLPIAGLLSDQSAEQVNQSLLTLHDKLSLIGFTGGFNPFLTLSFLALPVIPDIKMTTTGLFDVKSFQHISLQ

Take `O=c1[nH]cnc2nc[nH]c12` [hypoxanthine]: the “inhibition of adenine deaminase” value on adenine deaminase is reported as “did not inhibit”.
For the molecule “acylGGRGGFGGRGGFGGRGGFG (SEQ ID NO:3) [R3]”, on PRMT1 (2 μM PRMT1, 211 μM R3), the “rate, continuous spectrophotometric assay” value is 5.1±0.2 μM AdoHyc formed/min. Further, the “Vmax, R3 compared with JMH1” value at PRMT1 is “similar”.
With “acylKGGFGGRGGFGGK (SEQ ID NO:2) (acyl-KGGFGGRGGFGGK; reading uncertain; also: N-terminal acyl group not given here, printed as acylKGGFGGRGGFGGK) [JMH1]”, in the experiment with PRMT1, the “Vmax, R3 compared with JMH1” value is listed as “similar”.
What is called Vmax is the rate approached at saturating substrate. In the case of “acylSGRGKGGKGLGKGGAK (SEQ ID NO:1) [H4 peptide]”, the Vmax on PRMT1 (peptide substrate of PRMT1) worked out at 5.7 ± 0.2 µM/min.
